Source: EP3917907B1, “MODULATORS OF POTASSIUM ION CHANNELS AND USES THEREOF” (Universitá Degli Studi Di Salerno, priority 2019, dated 2020)

Key:
[1] = Photostability (HPLC, solar simulator irradiation); assay type: physicochemical; conditions: percentage of degradation after 6 h irradiation with solar simulator; 100 ppm in extracellular solution pH 7.4
Protocol: (§1) In order to study the solution stability and photostability of the potassium channel modulators object of the present invention, a stock solution of the proper analyte (1 mg/mL) in dimethylsulfoxide (DMSO) has been prepared. This solution has been then diluted to a concentration of 100 ppm using extracellular solution containing (in mM): 138 NaCl, 2 CaCl2, 5.4 KCl, 1 MgCl2, 10 glucose, and 10 HEPES, at pH 7.4, adjusted with NaOH. To measure solution stability, the diluted solutions have been maintained at ambient temperature for 6 h. To measure photostability, the diluted solutions have been irradiated for 6 h using a Oriel Sol3A Solar Simulator (Newport corporation, Irvine, CA, USA) with a 12x12 inches output beam. Aliquots of solution have been withdrawn after 6h and analyzed by HPLC using a Kinetex C18, 150 mm × 4.6 mm × 2.6 µm (Phenomenex, Bologna, Italy) as stationary phase and a mobile phase constituted by A: H2O/CH3CN (80:20) and B: CH3CN. Gradient elution has been performed from 20% to 90% of B in 7.50 minutes and from 90% to 20% of B in 1 minute. The pump flux has been set to 1.5 mL/min. Column has been thermostatted at 40°C during analysis. Results are espressed in Table 3 as percentage of degradation of the product calculated as ratio between the peak area of the analyte at time 0 (Pa0) and after 6h (Pa6) using the following formula: % degradation = (Pa0−Pa6)/Pa0 *100. [formula]

[2] = Solution stability (HPLC, extracellular solution, ambient temperature); assay type: physicochemical; conditions: percentage of degradation after 6 h at ambient temperature; 100 ppm in extracellular solution pH 7.4
Protocol: as §1

[3] = target: T1, Kv7.2 (Homo sapiens, UniProt O43526); test: Whole-cell patch-clamp on CHO cells transiently expressing Kv7.2; assay type: cell-based; conditions: CHO cells, mean±SEM, >1 activating, <1 inhibiting; for Idrug/Ictl at 0 mV: ratio of ramp-evoked Kv7.2 current amplitude in presence and absence of drug at 0 mV; for Idrug/Ictl at -40 mV: ratio of ramp-evoked Kv7.2 current amplitude in presence and absence of drug at -40 mV
T1 construct: expressed in transfected cells; host or cells: CHO cells (ATCC CRL-9618), transient transfection, pcDNA3.1(+)
Protocol: According to the experimental protocol, these plasmids were expressed individually or in combination (in particular of Kv7.2 and Kv7.3), together with a plasmid-expressing enhanced green fluorescent protein (Clontech, Palo Alto, CA) used as a transfection marker. Total cDNA in the transfection mixture was kept at 4 µg. CHO cells were grown in 100-mm plastic Petri dishes in Dulbecco's modified Eagle's medium containing 10% fetal bovine serum, nonessential amino acids (0.1 mM), penicillin (50 U/ml), and streptomycin ([…]) in a humidified atmosphere at 37°C with 5% CO2. The cells were plated on glass coverslips coated with poly-L-lysine, and transfected one day after plating with the appropriate cDNA using Lipofectamine 2000 (Life Technologies), according to the manufacturer's protocol.
Currents from CHO cells were recorded at room temperature (20-22°C) 24 hours after trasfection using the whole-cell configuration of the patch-clamp technique, with glass micropipettes of 3-5 MΩ resistance. During the recording, constant perfusion of extracellular solution was maintained. The extracellular solution contained (in mM): 138 NaCl, 2 CaCl2, 5.4 KCl, 1 MgCl2, 10 glucose, and 10 HEPES, at pH 7.4, adjusted with NaOH. The pipette (intracellular) solution contained (in mM): 140 KCl, 2 MgCl2, 10 EGTA, 10 HEPES, 5 Mg^2+-ATP, at pH 7.3-7.4, adjusted with KOH. Currents were recorded using an Axopatch-200A amplifier, filtered at 5 kHz, and digitized using a DigiData 1440A (Molecular Devices). The pCLAMP software (version 10.2, Molecular Devices) was used for data acquisition and analysis. To evaluate the activity of exemplary compounds on Kv7.2 (see Table 1), as well as on Kv7.1, Kv7.2/7.3, Kv7.3 and Kv7.4 channels for selected compounds (see Table 2), the cells were clamped at -80 mV and currents were elicited by 3-s voltage ramps from -80 mV to +20 mV in the presence and absence of each compound. […] The effects of drugs were expressed as shift in the ramp-voltage (ΔV) calculated at 20% of the maximal current (Miceli et al, Proc Natl Acad Sci U S A. 2013, 110(11):4386-91). Curves were fitted using the following equation: y=max/(1+x/EC50)n, where x is the drug concentration, n is the Hill coefficient and max is the maximal value achieved, as previously described (Ambrosino et al, Br J Pharmacol. 2013, 168(6):1430-1444). Data analysis and fit were performed using Sigmaplot (version 12.3).
Ramp-evoked Kv7.2 currents were analyzed by measuring the currents at -40 mV (a membrane potential value close to the activation threshold) and at 0 mV (a membrane potential value at which Kv7.2 conductance is largely saturated). In particular, -40 mV represents the threshold potential for spike initiation and 0 mV represents instead the membrane potential value at which maximal conductance of the channel is achieved.
In Table 1, the effect of exemplary compounds of the invention is expressed as the ratio between current amplitude in the presence (Idrug) and absence (Ictl) of the drug at these two membrane voltages. […]

Compound: O=C(Nc1ccc2c(c1)CCN2Cc1ccc(F)cc1)NC1CCCCC1 [1-cyclohexyl-3-(1-(4-fluorobenzyl)indolin-5-yl)urea]
- Photostability [1]: B (20%< degradation<40%)
- Solution stability [2]: A (degradation lower than 20%)
- Idrug/Ictl at 0 mV [3]: 0.85±0.12
- Idrug/Ictl at -40 mV [3]: 0.95±0.16

Compound: COCCOCC(=O)Nc1ccc2c(ccn2Cc2ccc(C(F)(F)F)cc2)c1 [2-(2-methoxyethoxy)-N-(1-(4-(trifluoromethyl)benzyl)-1H-indol-5-yl)acetamide]
- Photostability [1]: A (degradation lower than 20%)
- Solution stability [2]: A (degradation lower than 20%)
- Idrug/Ictl at 0 mV [3]: 0.86±0.01
- Idrug/Ictl at -40 mV [3]: 1.50±0.16

Compound: O=S(=O)(CCC1CCCCC1)Nc1ccc2c(ccn2Cc2ccc(F)cc2)c1 [2-cyclohexyl-N-(1-(4-fluorobenzyl)-1H-indol-5-yl)ethane-1-sulfonamide]
- Photostability [1]: A (degradation lower than 20%)
- Solution stability [2]: A (degradation lower than 20%)
- Idrug/Ictl at 0 mV [3]: 1.18±0.09
- Idrug/Ictl at -40 mV [3]: 1.64±0.10

Compound: O=C(CC1CCCCC1)Nc1ccc2c(c1)CCN2Cc1ccc(F)cc1 [2-cyclohexyl-N-(1-(4-fluorobenzyl)indolin-5-yl)acetamide]
- Photostability [1]: A (degradation lower than 20%)
- Solution stability [2]: A (degradation lower than 20%)
- Idrug/Ictl at 0 mV [3]: 1.71±0.12
- Idrug/Ictl at -40 mV [3]: 2.37±0.40

Compound: CC(C)(C)CC(=O)Nc1ccc2c(ccn2Cc2ccc(C(F)(F)F)cc2)c1 [3,3-dimethyl-N-(1-(4-(trifluoromethyl)benzyl)-1H-indol-5-yl)butanamide]
- Photostability [1]: A (degradation lower than 20%)
- Solution stability [2]: A (degradation lower than 20%)
- Idrug/Ictl at 0 mV [3]: 3.54±0.88
- Idrug/Ictl at -40 mV [3]: 8.23±1.36

Compound: COCCOCCC(=O)Nc1ccc2c(ccn2Cc2ccc(C(F)(F)F)cc2)c1 [3-(2-methoxyethoxy)-N-(1-(4-(trifluoromethyl)benzyl)-1H-indol-5-yl)propanamide]
- Photostability [1]: A (degradation lower than 20%)
- Solution stability [2]: A (degradation lower than 20%)
- Idrug/Ictl at 0 mV [3]: 1.34±0.10
- Idrug/Ictl at -40 mV [3]: 2.64±0.77

Compound: CC(C)[C@H]1CC[C@H](C)C[C@@H]1OC(=O)Nc1ccc2c(c1)CCN2Cc1ccc(F)cc1 [(1S,2R,5S)-2-isopropyl-5-methylcyclohexyl (1-(4-fluorobenzyl)indolin-5-yl)carbamate]
- Photostability [1]: B (20%< degradation<40%)
- Solution stability [2]: A (degradation lower than 20%)
- Idrug/Ictl at 0 mV [3]: 0.48±0.07
- Idrug/Ictl at -40 mV [3]: 0.80±0.14

Compound: O=S(=O)(Nc1ccc2c(c1)CCN2Cc1ccc(C(F)(F)F)cc1C(F)(F)F)C1CCCCC1 [N-(1-(2,4-bis(trifluoromethyl)benzyl)indolin-5-yl)cyclohexanesulfonamide]
- Photostability [1]: C (degradation > 40%)
- Solution stability [2]: B (20%< degradation<40%)
- Idrug/Ictl at 0 mV [3]: 1.22±0.11
- Idrug/Ictl at -40 mV [3]: 1.53±0.39

Compound: O=S(=O)(Nc1ccc2c(c1)CCN2Cc1ccc(F)cc1F)C1CCCCC1 [N-(1-(2,4-difluorobenzyl)indolin-5-yl)cyclohexanesulfonamide]
- Photostability [1]: C (degradation > 40%)
- Solution stability [2]: C (degradation > 40%)
- Idrug/Ictl at 0 mV [3]: 3.79±1.09
- Idrug/Ictl at -40 mV [3]: 5.82±1.38

Compound: O=C(Cc1ccc(Cl)cc1)N1CCc2cc(NS(=O)(=O)C3CCCCC3)ccc21 [N-(1-(2-(4-chlorophenyl)acetyl)indolin-5-yl)cyclohexanesulfonamide]
- Photostability [1]: B (20%< degradation<40%)
- Solution stability [2]: A (degradation lower than 20%)
- Idrug/Ictl at 0 mV [3]: 1.18±0.08
- Idrug/Ictl at -40 mV [3]: 1.45±0.08

Compound: O=S(=O)(Nc1ccc2c(c1)CCN2Cc1ccc(F)c(F)c1)C1CCCCC1 [N-(1-(3,4-difluorobenzyl)indolin-5-yl)cyclohexanesulfonamide]
- Photostability [1]: C (degradation > 40%)
- Solution stability [2]: C (degradation > 40%)
- Idrug/Ictl at 0 mV [3]: 2.11±0.18
- Idrug/Ictl at -40 mV [3]: 4.56±1.11

Compound: O=S(=O)(Nc1ccc2c(ccn2Cc2ccc(C(F)(F)F)cc2)c1)C1CCCCC1 [N-(1-(4-(trifluoromethyl)benzyl)-1H-indol-5-yl)cyclohexanesulfonamide]
- Photostability [1]: A (degradation lower than 20%)
- Solution stability [2]: A (degradation lower than 20%)
- Idrug/Ictl at 0 mV [3]: 1.93±0.19
- Idrug/Ictl at -40 mV [3]: 2.27±0.49

Compound: O=S(=O)(Nc1ccc2c(c1)CCN2Cc1ccc(C(F)(F)F)cc1)C1CCCCC1 [N-(1-(4-(trifluoromethyl)benzyl)indolin-5-yl)cyclohexanesulfonamide]
- Photostability [1]: C (degradation > 40%)
- Solution stability [2]: C (degradation > 40%)
- Idrug/Ictl at 0 mV [3]: 2.37±0.58
- Idrug/Ictl at -40 mV [3]: 3.2±0.20

Compound: O=[N+]([O-])c1cc(Br)ccc1CN1CCc2cc(NS(=O)(=O)C3CCCCC3)ccc21 [N-(1-(4-bromo-2-nitrobenzyl)indolin-5-yl)cyclohexanesulfonamide]
- Photostability [1]: C (degradation > 40%)
- Solution stability [2]: B (20%< degradation<40%)
- Idrug/Ictl at 0 mV [3]: 3.09±0.52
- Idrug/Ictl at -40 mV [3]: 7.27±1.32

Compound: O=C(c1ccc(F)cc1)N1CCc2cc(NS(=O)(=O)C3CCCCC3)ccc21 [N-(1-(4-fluorobenzoyl)indolin-5-yl)cyclohexanesulfonamide]
- Photostability [1]: B (20%< degradation<40%)
- Solution stability [2]: A (degradation lower than 20%)
- Idrug/Ictl at 0 mV [3]: 1.22±0.07
- Idrug/Ictl at -40 mV [3]: 1.85±0.30

Compound: O=S(=O)(Nc1ccc2c(ccn2Cc2ccc(F)cc2)c1)C1CCCCC1 [N-(1-(4-fluorobenzyl)-1H-indol-5-yl)cyclohexanesulfonamide]
- Photostability [1]: A (degradation lower than 20%)
- Solution stability [2]: A (degradation lower than 20%)
- Idrug/Ictl at 0 mV [3]: 2.76±0.19
- Idrug/Ictl at -40 mV [3]: 4.71±1.31

Compound: CC(C)CS(=O)(=O)Nc1ccc2c(c1)CCN2Cc1ccc(F)cc1 [N-(1-(4-fluorobenzyl)indolin-5-yl)-2-methylpropane-1-sulfonamide]
- Photostability [1]: C (degradation > 40%)
- Solution stability [2]: C (degradation > 40%)
- Idrug/Ictl at 0 mV [3]: 1.93±0.32
- Idrug/Ictl at -40 mV [3]: 2.55±0.79

Compound: CC1CC(C)CN(S(=O)(=O)Nc2ccc3c(c2)CCN3Cc2ccc(F)cc2)C1 (stereo not drawn) [N-(1-(4-fluorobenzyl)indolin-5-yl)-3,5-dimethylpiperidine-1-sulfonamide]
- Photostability [1]: B (20%< degradation<40%)
- Solution stability [2]: B (20%< degradation<40%)
- Idrug/Ictl at 0 mV [3]: 1.87±0.22
- Idrug/Ictl at -40 mV [3]: 1.91±0.44
